Laboratory results as given in patent publication US20160046597A1, “RORC2 INHIBITORS AND METHODS OF USE THEREOF” (PFIZER INC., priority 2013, published 2016).

Biological target: T1, RORC2 ligand binding domain (6-His-RORC2 LBD) (Homo sapiens, UniProt P51449)
T1 construct: made in house; host or cells: E. coli
T1 sequence (P51449 269-508 limits assumed): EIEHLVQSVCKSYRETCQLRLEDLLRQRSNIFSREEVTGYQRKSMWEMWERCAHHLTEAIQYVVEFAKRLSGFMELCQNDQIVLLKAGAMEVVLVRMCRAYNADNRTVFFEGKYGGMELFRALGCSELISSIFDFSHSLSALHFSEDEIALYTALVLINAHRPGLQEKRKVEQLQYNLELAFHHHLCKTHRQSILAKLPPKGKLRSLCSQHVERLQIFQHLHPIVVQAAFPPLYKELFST
Test: Co-activator recruitment by TR-FRET (RORC2 FRET)
Format: biochemical
Details: 6.3 nM RORC2 LBD, 200 nM SRC1-2 coactivator peptide, 3 hours room temperature
Source text: The activity of compound of the invention can be determined by a co-activator recruitment by TR-FRET (time-resolved fluorescence resonance energy transfer) assay. […] Due to the long lasting fluorescence emission of Europium, the non-specific, short-lived fluorescence is time-resolved (TR) from the fluorescence of interest. Inhibitors of the interaction of receptor and coactivator peptide are detected by a decrease in TR-FRET signal.
Specifically, in one embodiment the aforementioned assay was performed as outlined below. The assay was carried out in black polystyrene, 384-well plates in a total assay volume of 50.5 μL. The assay buffer contained 50 mM TRIS-HCL pH 7.5, 1 mM NaCl, 2 mM MgCl2, 0.5 mg/mL bovine serum albumin, and 5 mM dithiothreitol.

IC50 [µM]	Structure (SMILES)
0.0072	Cn1cc(C2CCN(C(=O)C3CCCC3)CC2)c2cc(NS(=O)(=O)C3CCCCC3)ccc21 [Example 70, N-{3-[1-(cyclopentylcarbonyl)piperidin-4-yl]-1-methyl-1H-indol-5-yl}cyclohexanesulfonamide]
0.0239	Cn1cc(C2CCN(C(=O)C3CCCC3)CC2)c2cc(NS(=O)(=O)c3ccc(C#N)cc3)ccc21 [Example 71, 4-cyano-N-{3-[1-(cyclopentylcarbonyl)piperidin-4-yl]-1-methyl-1H-indol-5-yl}benzenesulfonamide]
0.128	Cn1cc(C2CCN(C(=O)C3CCCC3)CC2)c2cc(NS(=O)(=O)C3CC3)ccc21 [Example 72, N-{3-[1-(cyclopentylcarbonyl)piperidin-4-yl]-1-methyl-1H-indol-5-yl}cyclopropanesulfonamide]
0.0677	CCCS(=O)(=O)Nc1ccc2c(c1)c(C1CCN(C(=O)C3CCCC3)CC1)cn2C [Example 73, N-{3-[1-(cyclopentylcarbonyl)piperidin-4-yl]-1-methyl-1H-indol-5-yl}propane-1-sulfonamide]
0.053	COCCCS(=O)(=O)Nc1ccc2c(c1)c(C1CCN(C(=O)C3CCCC3)CC1)cn2C [Example 74, N-{3-[1-(cyclopentylcarbonyl)piperidin-4-yl]-1-methyl-1H-indol-5-yl}-3-methoxypropane-1-sulfonamide]
0.0147	COc1ccc(S(=O)(=O)Nc2ccc3c(c2)c(C2CCN(C(=O)C4CCCC4)CC2)cn3C)cc1 [Example 75]
0.0229	Cn1cc(C2CCN(C(=O)C3CCCC3)CC2)c2cc(NS(=O)(=O)c3cccnc3)ccc21 [Example 76, N-{3-[1-(cyclopentylcarbonyl)piperidin-4-yl]-1-methyl-1H-indol-5-yl}pyridine-3-sulfonamide]
0.0505	Cn1cc(C2CCN(C(=O)C3CCCC3)CC2)c2cc(NS(=O)(=O)Cc3ccccc3)ccc21 [Example 77, N-{3-[1-(cyclopentylcarbonyl)piperidin-4-yl]-1-methyl-1H-indol-5-yl}-1-phenylmethanesulfonamide]
0.199	Cn1cc(C2CCN(C(=O)C3CCCC3)C2)c2cc(NC(=O)c3cccc(C#N)c3)ccc21 (stereo not shown) [Example 79, 3-cyano-N-(3-(1-(cyclopentylcarbonyl)pyrrolidin-3-yl)-1-methyl-1H-indol-5-yl)benzamide]
0.259	CC(C)c1cnc(N2CCC(c3cn(C)c4ccc(NC(=O)c5cccc(C#N)c5)cc34)CC2)nc1 [Example 80]
0.335	Cc1cnc(N2CCC(c3cn(C)c4ccc(NC(=O)c5cccc(C#N)c5)cc34)CC2)nc1 [Example 81, 3-cyano-N-(1-methyl-3-(1-(5-methylpyrimidin-2-yl)piperidin-4-yl)-1H-indol-5-yl)benzamide]
3.96	CC(C)c1cnc(N2CCC(c3cn(C)c4ccc(NC(=O)c5cccc(C#N)c5)cc34)CC2)nc1 [Example 82, 3-cyano-N-(3-[1-(5-isopropylpyrimidin-2-yl)piperidin-4-yl]-1-methyl-1H-indol-5-yl)benzamide]
0.0234	N#Cc1cccc(C(=O)Nc2ccc3onc(C4CCN(C(=O)C5CCCC5)CC4)c3c2)c1 [Example 83, 3-cyano-N-(3-(1-(cyclopentanecarbonyl)piperidin-4-yl)benzo[d]isoxazol-5-yl)benzamide]
0.214	N#Cc1cccc(C(=O)Nc2ccc3cnn(C4CCN(C(=O)C5CCCC5)CC4)c3c2)c1 [Example 84, 3-cyano-N-(1-(1-(cyclopentanecarbonyl)piperidin-4-yl)-1H-indazol-6-yl)benzamide]
0.859	N#Cc1cccc(C(=O)Nc2ccc3[nH]cc(C4CCN(C(=O)NC5CCCC5)CC4)c3c2)c1 [Example 85, 4-(5-(3-cyanobenzamido)-1H-indol-3-yl)-N-cyclopentylpiperidine-1-carboxamide]
> 20	N#Cc1cccc(C(=O)Nc2ccc3[nH]cc(C4CCN(S(=O)(=O)C5CCCC5)CC4)c3c2)c1 [Example 86, 3-cyano-N-(3-(1-(cyclopentylsulfonyl)piperidin-4-yl)-1H-indol-5-yl)benzamide]
